Assay results: patent publication US20240150298A1, “ANTIBACTERIAL COMPOUNDS” (Blacksmith Medicines, Inc., priority 2021, published 2024)
Values after ≈ are worked out from the molar mass of the structure shown. Where two headings read alike, the source gives them in different places.

What was measured:
Test in all cases: Bacterial susceptibility testing, MIC by broth microdilution (CLSI)
Assay type in all cases: cell-based
[1] = tested on: K. pneumoniae ATCC13883; settings: Klebsiella pneumoniae
Protocol: (§1) Minimal inhibitory concentrations (MIC) were determined by the broth microdilution method in accordance with the Clinical and Laboratory Standards Institute (CLSI) guidelines. In brief, organism suspensions were adjusted to a final inoculum between 3×10^5 and 7×10^5 colony-forming units (CFU)/mL. Drug dilutions and inocula were made in sterile, cation adjusted Mueller-Hinton Broth (Beckton Dickinson). In wells, an inoculum volume of 100 μL was mixed to 2 μL of DMSO with 2-fold serial dilutions of drug. All inoculated microdilution trays were incubated in ambient air at 35° C. for 18-24 h. Following incubation, the lowest concentration of the drug that prevented visible growth (OD600 nm<0.05) was recorded as the MIC. Performance of the assay was monitored by the use of laboratory quality-control strains and compounds with defined MIC spectrum, in accordance with CLSI guidelines.

[2] = tested on: P. aeruginosa ATCC27835; settings: Pseudomonas aeruginosa
Protocol: as §1

[3] = tested on: P. aeruginosa 209 PAO1; settings: Pseudomonas aeruginosa
Protocol: as §1

[4] = tested on: E. coli ATCC25922; settings: Escherichia coli
Protocol: as §1

[5] = ATCC13883, broth microdilution, 35° C., 18-24 h, read-out: MIC K. pneumoniae ATCC13883
[6] = ATCC27835, broth microdilution, 35° C., 18-24 h, read-out: MIC P. aeruginosa ATCC27835
[7] = PAO1, broth microdilution, 35° C., 18-24 h, read-out: MIC P. aeruginosa 209 PAO1
[8] = ATCC25922, broth microdilution, 35° C., 18-24 h, read-out: MIC E. coli ATCC25922
[9] = ATCC13883, read-out: MIC K. pneumoniae ATCC13883
[10] = ATCC27835, read-out: MIC P. aeruginosa ATCC27835
[11] = PAO1, read-out: MIC P. aeruginosa 209 PAO1
[12] = ATCC25922, read-out: MIC E. coli ATCC25922

SMILES | MIC [1, 5] | MIC [2, 6] | MIC [3, 7] | MIC [4, 8] | MIC [1, 9] | MIC [2, 10] | MIC [3, 11] | MIC [4, 12]
C[C@H](O)c1nccn1[C@@H](/C=C/c1ccc(-c2ccc(C3CC(C(=O)NCc4cocn4)C3)cc2)cc1)CO (stereo partly drawn) [Compound 54, 3-(4′-((S,E)-4-hydroxy-3-(2-((S)-1-hydroxyethyl)-1H-imidazol-1-yl)but-1-en-1-yl)-[1,1′-biphenyl]-4-yl)-N-(oxazol-4-ylmethyl)cyclobutane-1-carboxamide] | 1 µg/mL (≈ 1.95 µM) | 4 µg/mL (≈ 7.8 µM) | 2 µg/mL (≈ 3.9 µM) | 0.5 µg/mL (≈ 0.975 µM) | – | – | – | –
C[C@H](O)c1nccn1C/C=C/c1ccc(-c2ccc(OCC3(N)CC3)cc2)cc1 [Compound 7, (S,E)-1-(1-(3-(4′-((1-aminocyclopropyl)methoxy)-[1,1′-biphenyl]-4-yl)allyl)-1H-imidazol-2-yl)ethan-1-ol] | 0.25 µg/mL (≈ 0.642 µM) | 4 µg/mL (≈ 10.3 µM) | 2 µg/mL (≈ 5.13 µM) | 0.25 µg/mL (≈ 0.642 µM) | – | – | – | –
C[C@H](O)c1nccn1[C@@H](/C=C/c1ccc(-c2ccc([C@H]3C[C@H](NC(=O)CS(C)(=O)=O)C3)cc2)cc1)CO [Compound 63, N-((1S,3r)-3-(4′-((S,E)-4-hydroxy-3-(2-((S)-1-hydroxyethyl)-1H-imidazol-1-yl)but-1-en-1-yl)-[1,1′-biphenyl]-4-yl)cyclobutyl)-2-(methylsulfonyl)acetamide] | – | – | – | – | 4 µg/mL (≈ 7.64 µM) | 4 µg/mL (≈ 7.64 µM) | 2 µg/mL (≈ 3.82 µM) | 2 µg/mL (≈ 3.82 µM)
C[C@H](O)c1nccn1[C@@H](/C=C/c1ccc(-c2ccc([C@H]3C[C@H](NC(=O)CO)C3)cc2)cc1)CO [Compound 64, 2-hydroxy-N-((1S,3r)-3-(4′-((S,E)-4-hydroxy-3-(2-((S)-1-hydroxyethyl)-1H-imidazol-1-yl)but-1-en-1-yl)-[1,1′-biphenyl]-4-yl)cyclobutyl)acetamide] | – | – | – | – | 2 µg/mL (≈ 4.33 µM) | 2 µg/mL (≈ 4.33 µM) | 1 µg/mL (≈ 2.17 µM) | 1 µg/mL (≈ 2.17 µM)
C[C@H](O)c1nccn1[C@@H](/C=C/c1ccc(-c2ccc(C3CC(NCC(F)(F)CO)C3)cc2)cc1)CO (stereo partly drawn) [Compound 45, (S,E)-4-(4′-(3-((2,2-difluoro-3-hydroxypropyl)amino)cyclobutyl)-[1,1′-biphenyl]-4-yl)-2-(2-((S)-1-hydroxyethyl)-1H-imidazol-1-yl)but-3-en-1-ol] | 0.5 µg/mL (≈ 1 µM) | 4 µg/mL (≈ 8.04 µM) | 4 µg/mL (≈ 8.04 µM) | 0.25 µg/mL (≈ 0.502 µM) | – | – | – | –
C[C@H](O)c1nccn1[C@@H](/C=C/c1ccc(-c2ccc(C3CC(CNC(C#N)CO)C3)cc2)cc1)CO (stereo partly drawn) [Compound 59, 3-hydroxy-2-(((3-(4′-((S,E)-4-hydroxy-3-(2-((S)-1-hydroxyethyl)-1H-imidazol-1-yl)but-1-en-1-yl)-[1,1′-biphenyl]-4-yl)cyclobutyl)methyl)amino)propane nitrile] | 4 µg/mL (≈ 8.22 µM) | 4 µg/mL (≈ 8.22 µM) | 2 µg/mL (≈ 4.11 µM) | 2 µg/mL (≈ 4.11 µM) | – | – | – | –
C[C@H](O)c1nccn1[C@@H](/C=C/c1ccc(-c2ccc(C3CC(NCC(=O)O)C3)cc2)cc1)CO (stereo partly drawn) [Compound 44, (3-(4′-((S,E)-4-hydroxy-3-(2-((S)-1-hydroxyethyl)-1H-imidazol-1-yl)but-1-en-1-yl)-[1,1′-biphenyl]-4-yl)cyclobutyl)glycine] | 8 µg/mL (≈ 17.3 µM) | 4 µg/mL (≈ 8.67 µM) | 4 µg/mL (≈ 8.67 µM) | 4 µg/mL (≈ 8.67 µM) | – | – | – | –
C[C@H](O)c1nccn1[C@@H](/C=C/c1ccc(-c2ccc(C3CC(NCc4ncon4)C3)cc2)cc1)CO (stereo partly drawn) [Compound 42, (S,E)-4-(4′-(3-(((1,2,4-oxadiazol-3-yl)methyl)amino)cyclobutyl)-[1,1′-biphenyl]-4-yl)-2-(2-((S)-1-hydroxyethyl)-1H-imidazol-1-yl)but-3-en-1-ol] | 0.5 µg/mL (≈ 1.03 µM) | 4 µg/mL (≈ 8.24 µM) | 4 µg/mL (≈ 8.24 µM) | – | – | – | – | –
C[C@H](O)c1nccn1[C@@H](/C=C/c1ccc(-c2ccc(OCC(O)CN)cc2)cc1)CO (mixture of isomers) [Compound 22, (2S,E)-4-(4′-(3-amino-2-hydroxypropoxy)-[1,1′-biphenyl]-4-yl)-2-(2-((S)-1-hydroxyethyl)-1H-imidazol-1-yl)but-3-en-1-ol] | 64 µg/mL (≈ 151 µM) | 2 µg/mL (≈ 4.72 µM) | 4 µg/mL (≈ 9.44 µM) | 16 µg/mL (≈ 37.8 µM) | – | – | – | –
C[C@H](O)c1nccn1[C@@H](/C=C/c1ccc(-c2ccc(C3CC(C(=O)NCc4ncon4)C3)cc2)cc1)CO (stereo partly drawn) [Compound 53, N-((1,2,4-oxadiazol-3-yl)methyl)-3-(4′-((S,E)-4-hydroxy-3-(2-((S)-1-hydroxyethyl)-1H-imidazol-1-yl)but-1-en-1-yl)-[1,1′-biphenyl]-4-yl)cyclobutane-1-carboxamide] | 1 µg/mL (≈ 1.95 µM) | 4 µg/mL (≈ 7.79 µM) | 2 µg/mL (≈ 3.89 µM) | 0.5 µg/mL (≈ 0.974 µM) | – | – | – | –
C[C@H](O)c1nccn1[C@@H](/C=C/c1ccc(-c2ccc(C3CC(NCc4noc(C(N)=O)n4)C3)cc2)cc1)CO (stereo partly drawn) [Compound 47, 3-(((3-(4′-((S,E)-4-hydroxy-3-(2-((S)-1-hydroxyethyl)-1H-imidazol-1-yl)but-1-en-1-yl)-[1,1′-biphenyl]-4-yl)cyclobutyl)amino)methyl)-1,2,4-oxadiazole-5-carboxamide] | 1 µg/mL (≈ 1.89 µM) | 4 µg/mL (≈ 7.57 µM) | 4 µg/mL (≈ 7.57 µM) | 0.5 µg/mL (≈ 0.946 µM) | – | – | – | –
CC(=O)O[C@@H]1C[C@H]1c1ccc(-c2ccc(/C=C/[C@@H](CO)n3ccnc3[C@H](C)O)cc2)cc1 [Compound 69, (1R,2S)-2-(4′-((S,E)-4-hydroxy-3-(2-((S)-1-hydroxyethyl)-1H-imidazol-1-yl)but-1-en-1-yl)-[1,1′-biphenyl]-4-yl)cyclopropyl acetate] | 0.5 µg/mL | 4 µg/mL | 2 µg/mL | 0.25 µg/mL | – | – | – | –
C[C@H](O)c1nccn1[C@@H](/C=C/c1ccc(-c2ccc(C3CC(NCc4cocn4)C3)cc2)cc1)CO (stereo partly drawn) [Compound 40, (S,E)-2-(2-((S)-1-hydroxyethyl)-1H-imidazol-1-yl)-4-(4′-(3-((oxazol-4-ylmethyl)amino)cyclobutyl)-[1,1′-biphenyl]-4-yl)but-3-en-1-ol] | 1 µg/mL (≈ 2.06 µM) | 2 µg/mL (≈ 4.13 µM) | 2 µg/mL (≈ 4.13 µM) | – | – | – | – | –
C[C@H](O)c1nccn1[C@@H](/C=C/c1ccc(-c2ccc(OC3CN(CCO)C3)cc2)cc1)CO [Compound 20, (S,E)-2-(2-((S)-1-hydroxyethyl)-1H-imidazol-1-yl)-4-(4′-((1-(2-hydroxyethyl)azetidin-3-yl)oxy)-[1,1′-biphenyl]-4-yl)but-3-en-1-ol] | – | 2 µg/mL (≈ 4.45 µM) | 2 µg/mL (≈ 4.45 µM) | 4 µg/mL (≈ 8.9 µM) | – | – | – | –
C[C@H](O)c1nccn1[C@@H](/C=C/c1ccc(-c2ccc(OCCC(O)CO)cc2)cc1)CO (mixture of isomers) [Compound 43, 4-((4′-((S,E)-4-hydroxy-3-(2-((S)-1-hydroxyethyl)-1H-imidazol-1-yl)but-1-en-1-yl)-[1,1′-biphenyl]-4-yl)oxy)butane-1,2-diol] | 2 µg/mL (≈ 4.56 µM) | 2 µg/mL (≈ 4.56 µM) | 2 µg/mL (≈ 4.56 µM) | – | – | – | – | –
C[C@H](O)c1nccn1[C@@H](/C=C/c1ccc(-c2ccc(C3CC(NC(C#N)CO)C3)cc2)cc1)CO (stereo partly drawn) [Compound 41, 3-hydroxy-2-((3-(4′-((S,E)-4-hydroxy-3-(2-((S)-1-hydroxyethyl)-1H-imidazol-1-yl)but-1-en-1-yl)-[1,1′-biphenyl]-4-yl)cyclobutyl)amino)propanenitrile] | 2 µg/mL (≈ 4.23 µM) | 2 µg/mL (≈ 4.23 µM) | 2 µg/mL (≈ 4.23 µM) | – | – | – | – | –
C[C@H](O)c1nccn1[C@@H](/C=C/c1ccc(-c2ccc(O[C@@H]3C[C@H]3N)cc2)cc1)CO (single isomer, unassigned) [Compound 15] | – | 2 µg/mL (≈ 4.93 µM) | 0.5 µg/mL (≈ 1.23 µM) | 0.5 µg/mL (≈ 1.23 µM) | – | – | – | –
C[C@H](O)c1nccn1[C@@H](/C=C/c1ccc(-c2ccc(OC[C@H](N)CO)cc2)cc1)CO (single isomer, unassigned) [Compound 9] | – | 2 µg/mL (≈ 4.72 µM) | 2 µg/mL (≈ 4.72 µM) | – | – | – | – | –
